According to patent US11124758B2, “Bacteria culture medium and applications thereof” (priority 2013, dated 2021):
Read-outs that look alike come from different tables or passages of the source.

What was measured:
E. coli DH5α strain = experiment: Shelf life test of antibiotic premixed in culture medium: suppression of E. coli growth after storage; type: cell-based; settings: for suppression of growth of E. coli DH5α after storage: 6, 12, 18 and 24 months at 4° C.; for shelf life of culture media containing the antibiotic: 100 μg/ml, LB medium, storage at 4° C.
[1] = in human body; cited from earlier work
[2] = 4° C., cited from earlier work
[3] = 4° C.; cited from earlier work
[4] = less than 25° C.; cited from earlier work
[5] = 100 μg/ml or 1 mg/ml in LB liquid and LB agar plate medium, two months of storage at 4° C., incubated overnight at 37° C.
[6] = 10 mg/ml in LB liquid and LB agar plate medium, three months of storage at 4° C.
[7] = 100 mg/ml in LB liquid and LB agar plate medium, four months of storage at 4° C.

SMILES: CC1(C)S[C@@H]2[C@H](NC(=O)Cc3ccccc3)C(=O)N2[C@H]1C(=O)O.c1ccc(CCNCc2ccccc2)cc1 [benethamine penicillin]
- suppression of growth of E. coli DH5α after storage (E. coli DH5α strain; 5 and 25 mg/ml, M9 minimal liquid and agar plate medium): able to completely suppress the growth
- suppression of growth of E. coli DH5α after storage (E. coli DH5α strain; 5 and 25 mg/ml, TB liquid and TB agar plate medium): able to completely suppress the growth

SMILES: CC1(C)S[C@@H]2[C@H](NC(=O)C(C(=O)O)c3ccccc3)C(=O)N2[C@H]1C(=O)O (stereo partly drawn) [carbenicillin]
- suppression of E. coli growth after storage (E. coli DH5α strain; [5]): unable to suppress E. coli growth completely
- shelf life of culture media containing the antibiotic (E. coli DH5α strain): no more than two
- suppression of E. coli growth after storage (E. coli DH5α strain; [6]): unable to suppress E. coli growth completely
- suppression of E. coli growth after storage (E. coli DH5α strain; [7]): unable to suppress E. coli growth completely

SMILES: CC1(C)S[C@@H]2[C@H](NC(=O)Cc3ccccc3)C(=O)N2[C@H]1C(=O)O.CC1(C)S[C@@H]2[C@H](NC(=O)Cc3ccccc3)C(=O)N2[C@H]1C(=O)O.c1ccc(CNCCNCc2ccccc2)cc1 [benzathine benzylpenicillin]
- suppression of growth of E. coli DH5α after storage (E. coli DH5α strain; 0.5 and 2.5 mg/ml, LB liquid and LB agar plate medium): able to completely suppress the growth
- suppression of growth of E. coli DH5α after storage (E. coli DH5α strain; 0.5 and 2.5 mg/ml, SOC liquid and SOC agar plate medium): able to completely suppress the growth
- duration of medicine effect [1]: 3-4 weeks

SMILES: CC1(C)S[C@@H]2[C@H](NC(=O)[C@H](N)c3ccccc3)C(=O)N2[C@H]1C(=O)O [ampicillin]
- suppression of E. coli growth after storage (E. coli DH5α strain; [5]): unable to suppress E. coli growth completely
- shelf life of culture media containing the antibiotic (E. coli DH5α strain): no more than two
- suppression of E. coli growth after storage (E. coli DH5α strain; [6]): unable to suppress E. coli growth completely
- suppression of E. coli growth after storage (E. coli DH5α strain; [7]): unable to suppress E. coli growth completely
- time in which activity reduces by 10% ([2]; dissolved in glucose injection solution): around 1 hour
- time in which activity reduces by 10% ([2]; dissolved in water or physiological saline (0.9% sodium chloride)): 2 to 3 days
- time liquid culture medium and semi-solid agar culture plate medium containing the antibiotic can be kept [3]: about one

SMILES: Cc1onc(-c2ccccc2Cl)c1C(=O)N[C@@H]1C(=O)N2[C@@H]1SC(C)(C)[C@@H]2C(=O)O.Cc1onc(-c2ccccc2Cl)c1C(=O)N[C@@H]1C(=O)N2[C@@H]1SC(C)(C)[C@@H]2C(=O)O.c1ccc(CNCCNCc2ccccc2)cc1 [cloxacillin benzathine]
- suppression of growth of E. coli DH5α after storage (E. coli DH5α strain; 0.5 and 2.5 mg/ml, YPD liquid and YPD agar plate medium): able to completely suppress the growth
- suppression of growth of E. coli DH5α after storage (E. coli DH5α strain; 0.5 and 2.5 mg/ml, YT liquid and YT agar plate medium): able to completely suppress the growth

SMILES: CC1(C)S[C@@H]2[C@H](NC(=O)Cc3ccccc3)C(=O)N2[C@H]1C(=O)O.CCN(CC)CCOC(=O)c1ccc(N)cc1 [procaine penicillin]
- suppression of growth of E. coli DH5α after storage (E. coli DH5α strain; 10, 40 and 80 mg/ml, LB liquid and LB agar plate medium): able to completely suppress the growth
- suppression of growth of E. coli DH5α after storage (E. coli DH5α strain; 10, 40 and 80 mg/ml, SOC liquid and SOC agar plate medium): able to completely suppress the growth
- duration of medicine effect [1]: ≤ 48 h

SMILES: CC(=O)OCC1=C(C(=O)O)N2C(=O)[C@@H](NC(=O)CSc3ccncc3)[C@H]2SC1.CC(=O)OCC1=C(C(=O)O)N2C(=O)[C@@H](NC(=O)CSc3ccncc3)[C@H]2SC1.c1ccc(CNCCNCc2ccccc2)cc1 [cephapirin benzathine]
- suppression of growth of E. coli DH5α after storage (E. coli DH5α strain; 0.25 and 1 mg/ml, M9 minimal liquid and agar plate medium): able to completely suppress the growth
- suppression of growth of E. coli DH5α after storage (E. coli DH5α strain; 0.25 and 1 mg/ml, YT liquid and YT agar plate medium): able to completely suppress the growth
- time injection suspension can be stored stably [4]: ≤ 36 months
